Source: patent US4841067A, “Novel amino acid derivatives” (Kissei Pharmaceutical Co., Ltd., priority 1985, dated 1989)

Assays:
human renin = biological target: T1, human renin (Homo sapiens, UniProt P00797); assay: Human renin-sheep renin substrate reaction system in vitro (angiotensin I by radioimmunoassay); type: biochemical; conditions: pH 7.4, 37° C., 15 minutes, read-out: IC50 (molar concentration which produced 50% inhibition)
T1 sequence (P00797 67-406): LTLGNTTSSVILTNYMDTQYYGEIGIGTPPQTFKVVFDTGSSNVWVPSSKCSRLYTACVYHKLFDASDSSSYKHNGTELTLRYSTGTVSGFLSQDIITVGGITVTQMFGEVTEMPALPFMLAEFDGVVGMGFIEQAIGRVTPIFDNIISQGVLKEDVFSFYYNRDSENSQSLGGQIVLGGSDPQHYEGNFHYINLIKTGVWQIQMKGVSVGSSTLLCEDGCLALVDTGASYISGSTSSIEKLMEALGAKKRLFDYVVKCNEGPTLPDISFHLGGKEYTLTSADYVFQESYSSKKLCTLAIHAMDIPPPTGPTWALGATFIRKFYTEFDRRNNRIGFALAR
Protocol: Human renin-sheep renin substrate reaction system in vitro To a mixture containing 200 μl of a 125 mM pyrophosphate buffer (ph 7.4), 25 μl of a 20 mM aqueous solution of […] as an angiotensin converting enzyme inhibitor, 50 μl of semipurified sheep renin substrate (4400 ng angiotensin I/ml) 50 μl of dimethyl sulfoxide solution of a dipeptide of the present invention and 150 μl of deionized water was added 25 μl of purified human renin (20-30 ng angiotensin I/hr). The mixture was incubated for 15 minutes on a water bath at 37° C., and the reaction mixture was allowed to stand for 5 minutes on a water bath at 100° C. to stop the reaction. After cooling, 200 μl of the solution were taken up and the amount of angiotensin I produced by the addition of renin was determined by radioimmunoassay. The inhibitory effect was calculated by the following equation. [formula] As a control, the same procedure as above was carried out by using 50 μl of dimethyl sulfoxide alone in place of the 50 μl of dimethyl sulfoxide solution containing an amino acid derivative of the present invention. The molar concentration which produced 50% inhibition (IC50) was calculated from the inhibition value obtained, and the results are shown below.

marmoset = assay: Hypotensive effect in marmoset (furosemide-induced high renin state, i.v. injection); type: in vivo, common marmoset; conditions: 2.5 mg/kg i.v., conscious male marmoset, furosemide pretreated
Protocol: Hypotensive effect in marmoset
The experiment was carried out by using common marmoset as described in K. G. Hofbauer et al., Clinical and Experimental Hypertension-Theory and Practice, Vol. A5, No. 7 & 8 (1983), pages 1237-1247.
Furosemide was orally administered three times to common marmoset at 15 mg per kilogram per day every other day to create a high renin state. Blood pressure of consious marmoset was measured 2 days after the last administration of furosemide.
Measurement of blood pressure
Male common marmoset weighing 325 g was lightly anesthetized by ketamine hydrochloride (Ketalar, produced by Parke Davis, 20 mg/kg i.m.), and their carotid artery and vein exposed.. Catheters being filled with a heparin solution was subcutaneously inserted into the carotid artery and vein from the dorsum. After suturing of the opened part, the marmosets were placed on a heated mat. After complete recovery from the anesthesia, an amino acid derivative of the present invention (2.5 mg/kg) was intravenously injected through the venous catheter.
The arterial catheter was connected to a pressure transducer and blood pressure was recorded on the polygraph.

| Structure (SMILES) | IC50 (human renin) | other results |
| --- | --- | --- |
| COC(=O)C(O)[C@H](CC(C)C)NC(=O)[C@H](Cc1c[nH]cn1)NC(=O)C(CC(=O)NCCc1ccccc1)Cc1cccc2ccccc12 (mixture of isomers) [methyl (2RS, 3S)-3-{N-[(+)-2-(1-naphthylmethyl)-3-(phenethylcarbamoyl)propionyl]-L-histidyl}amino-2-hydroxy-5-methylhexanoate] | 0.049 µM | Diastolic blood pressure (marmoset; 1 min after injection (control 72)): 56 mm Hg; Systolic blood pressure (marmoset; 1 min after injection (control 103)): 85 mm Hg; Diastolic blood pressure (marmoset; 3 min after injection (control 72)): 61 mm Hg; Systolic blood pressure (marmoset; 3 min after injection (control 103)): 91 mm Hg; Diastolic blood pressure (marmoset; 5 min after injection (control 72)): 62 mm Hg; Systolic blood pressure (marmoset; 5 min after injection (control 103)): 92 mm Hg; Diastolic blood pressure (marmoset; 10 min after injection (control 72)): 70 mm Hg; Systolic blood pressure (marmoset; 10 min after injection (control 103)): 102 mm Hg; Diastolic blood pressure (marmoset; 15 min after injection (control 72)): 72 mm Hg; Systolic blood pressure (marmoset; 15 min after injection (control 103)): 103 mm Hg |
| CC(C)C[C@H](NC(=O)[C@H](Cc1c[nH]cn1)NC(=O)C(CC(=O)NCCc1ccccc1)Cc1cccc2ccccc12)C(O)C(=O)OCc1ccccc1 (single isomer, unassigned) | 0.042 µM | – |
| CC(C)CCOC(=O)C(O)[C@H](CC(C)C)NC(=O)[C@H](Cc1c[nH]cn1)NC(=O)C(CC(=O)NCCc1ccccc1)Cc1cccc2ccccc12 (single isomer, unassigned) | 0.061 µM | – |
| CC(C)C[C@H](NC(=O)[C@H](Cc1cnc[nH]1)NC(=O)C(CC(=O)NCCc1ccccc1)Cc1cccc2ccccc12)C(O)C(=O)NCc1ccccc1 (single isomer, unassigned) | 0.1 µM | – |
| CC(C)CCNC(=O)C(O)[C@H](CC(C)C)NC(=O)[C@H](Cc1cnc[nH]1)NC(=O)C(CC(=O)NCCc1ccccc1)Cc1cccc2ccccc12 (single isomer, unassigned) | 0.25 µM | – |
| CC(C)C[C@H](NC(=O)[C@H](Cc1c[nH]cn1)NC(=O)C(CC(=O)NCCc1ccccc1)Cc1cccc2ccccc12)[C@@H](O)CCO (single isomer, unassigned) | 5.9 µM | – |
| COCC(O)[C@H](CC(C)C)NC(=O)[C@H](Cc1cnc[nH]1)NC(=O)C(CC(=O)NCCc1ccccc1)Cc1cccc2ccccc12 (single isomer, unassigned) [(2RS, 3S)-3-{N-(+)-2-(1-Naphthylmethyl)-3-(phenethylcarbamoyl)propionyl]-L-histidyl}amino-2-hydroxy-5-methylhexyl methyl ether] | 0.79 µM | – |
| CC(C)CCOCC(O)[C@H](CC(C)C)NC(=O)[C@H](Cc1c[nH]cn1)NC(=O)C(CC(=O)NCCc1ccccc1)Cc1cccc2ccccc12 (single isomer, unassigned) [(2RS, 3S)-3-{N-[(+)-2-(1-Naphthylmethyl)-3-(phenethylcarbamoyl)propionyl]-L-histidyl}amino-2-hydroxy-5-methylhexyl isoamyl ether] | 0.28 µM | – |
| CC(C)C[C@H](NC(=O)[C@H](Cc1c[nH]cn1)NC(=O)C(CC(=O)NCCc1ccccc1)Cc1cccc2ccccc12)C(O)CO (single isomer, unassigned) [(2RS, 3S)-3-{N-[(+)-2-(1-naphthylmethyl)-3-(phenethylcarbamoyl)propionyl]-L-histidyl}amino-2-hydroxy-5-methylhexanol] | 0.59 µM | – |
| CC(C)C[C@H](NC(=O)[C@H](Cc1cnc[nH]1)NC(=O)C(CC(=O)NCCc1ccccc1)Cc1cccc2ccccc12)C(O)COCc1ccccc1 (single isomer, unassigned) [(2RS, 3S)-3-{N-[(+)-2-(1-naphthylmethyl)-3-phenethylcarbamoyl)propionyl]-L-histidyl}amino-2-hydroxy-5-methylhexyl benzyl ether] | 0.47 µM | – |
| CC(C)C[C@H](NC(=O)[C@H](Cc1cnc[nH]1)NC(=O)C(CC(=O)NCCc1ccccc1)Cc1cccc2ccccc12)C(O)CNCc1ccccc1 (single isomer, unassigned) [(2RS, 3S)-N-Benzyl-3-{N-[(+)-2-(1-naphthylmethyl)-3-(phenethylcarbamoyl)propiobnyl]-L-histidyl}amino-2-hydroxyl-5-methylhexylamine] | 0.15 µM | – |
| CC(C)CCNCC(O)[C@H](CC(C)C)NC(=O)[C@H](Cc1cnc[nH]1)NC(=O)C(CC(=O)NCCc1ccccc1)Cc1cccc2ccccc12 (single isomer, unassigned) [(2RS, 3S)-N-Isoamyl-3-{N-[(+)-2-(1-naphthylmethyl)-3-(phenethylcarbamoyl)propionyl]-L-histidyl}-amino-2-hydroxy-5-methylhexylamine] | 0.35 µM | – |
| COC(=O)C[C@H](O)[C@H](CC(C)C)NC(=O)[C@H](Cc1cnc[nH]1)NC(=O)C(CC(=O)NCCc1ccccc1)Cc1cccc2ccccc12 (single isomer, unassigned) [Methyl N-[(+)-2-(1-naphthylmethyl)-3-(phenethylcarbamoyl)propionyl]-L-histidylstatinate] | 0.31 µM | – |
| CC(C)CCNC(=O)C[C@H](O)[C@H](CC(C)C)NC(=O)[C@H](Cc1cnc[nH]1)NC(=O)C(CC(=O)NCCc1ccccc1)Cc1cccc2ccccc12 (single isomer, unassigned) [N-[(+)-2-(1-Naphthylmethyl)-3-(phenethylcarbamoyl)propionyl]-L-histidylstatylisoamylamide] | 0.072 µM | – |

The next lines start with results.

| IC50 (human renin) | Structure (SMILES) | other results |
| --- | --- | --- |
| 0.7 µM | CNC(=O)C(O)[C@H](CC(C)C)NC(=O)[C@H](Cc1cnc[nH]1)NC(=O)C(CC(=O)NCCc1ccccc1)Cc1cccc2ccccc12 (mixture of isomers) [(2RS,3S)-3-{N-[(+)-2-(1-naphthylmethyl)-3-(phenethylcarbamoyl)propionyl]-L-histidyl}-amino-2-hydroxy-5-methylhexanoylmethylamide] | – |
| 0.031 µM | COC(=O)[C@H](O)[C@H](CC(C)C)NC(=O)[C@H](Cc1cnc[nH]1)NC(=O)C(CC(=O)NCCc1ccccc1)Cc1cccc2ccccc12 (single isomer, unassigned) | – |
| 1.3 µM | COC(=O)[C@@H](O)[C@H](CC(C)C)NC(=O)[C@H](Cc1cnc[nH]1)NC(=O)C(CC(=O)NCCc1ccccc1)Cc1cccc2ccccc12 (single isomer, unassigned) | – |
| 2.8 µM | CC(C)C[C@H](NC(=O)[C@H](Cc1cnc[nH]1)NC(=O)C(CC(=O)NCCc1ccccc1)Cc1cccc2ccccc12)C(O)C(=O)N(C)C (single isomer, unassigned) | – |
| 4.5 µM | CNC(=O)C(O)[C@H](CC(C)C)NC(=O)[C@H](Cc1cnc[nH]1)NC(=O)C(CC(=O)NCCc1ccccc1)Cc1cccc2ccccc12 (single isomer, unassigned) [listing 1 of 2 here] | – |
| 0.39 µM | CNC(=O)C(O)[C@H](CC(C)C)NC(=O)[C@H](Cc1cnc[nH]1)NC(=O)C(CC(=O)NCCc1ccccc1)Cc1cccc2ccccc12 (single isomer, unassigned) [listing 2 of 2 here] | – |
| 0.74 µM | CNC(=O)C[C@H](O)[C@H](CC(C)C)NC(=O)[C@H](Cc1cnc[nH]1)NC(=O)C(CC(=O)NCCc1ccccc1)Cc1cccc2ccccc12 (single isomer, unassigned) [N-[(+)-2-(1-Naphthylmethyl)-3-(phenethylcarbamoyl)propionyl]-L-histidylstatylmethylamide] | – |
